In PMC7365701 (Journal of medicinal chemistry, 2020):
pEC50: −log10 of the molar value.

What was measured:
human PPARα (hPPARα) [1] = target: T1, human PPARα (hPPARα) (Homo sapiens, UniProt Q07869)
T1 sequence (Q07869 1-468): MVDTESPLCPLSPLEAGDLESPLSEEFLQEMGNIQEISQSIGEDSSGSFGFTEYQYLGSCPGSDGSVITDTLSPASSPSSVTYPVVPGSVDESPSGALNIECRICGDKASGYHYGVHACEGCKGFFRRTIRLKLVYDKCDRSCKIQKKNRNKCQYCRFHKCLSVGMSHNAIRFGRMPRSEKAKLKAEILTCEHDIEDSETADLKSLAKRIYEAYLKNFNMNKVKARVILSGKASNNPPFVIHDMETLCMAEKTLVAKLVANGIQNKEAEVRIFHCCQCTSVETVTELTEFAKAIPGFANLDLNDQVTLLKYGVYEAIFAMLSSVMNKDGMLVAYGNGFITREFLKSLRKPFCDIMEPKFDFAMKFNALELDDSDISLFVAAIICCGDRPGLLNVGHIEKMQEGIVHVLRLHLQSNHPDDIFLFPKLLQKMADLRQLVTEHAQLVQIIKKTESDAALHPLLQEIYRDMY

[2] = target: human ether-á-go-go (hERG) potassium channel (Homo sapiens, UniProt Q12809); test: hERG automated whole cell patch-clamp; type: cell-based; conditions: tested at 0.1, 1 and 10 μM; ≥50% inhibition at 10 μM flagged as toxic
Sequence of human ether-á-go-go (hERG) potassium channel (Q12809 whole entry): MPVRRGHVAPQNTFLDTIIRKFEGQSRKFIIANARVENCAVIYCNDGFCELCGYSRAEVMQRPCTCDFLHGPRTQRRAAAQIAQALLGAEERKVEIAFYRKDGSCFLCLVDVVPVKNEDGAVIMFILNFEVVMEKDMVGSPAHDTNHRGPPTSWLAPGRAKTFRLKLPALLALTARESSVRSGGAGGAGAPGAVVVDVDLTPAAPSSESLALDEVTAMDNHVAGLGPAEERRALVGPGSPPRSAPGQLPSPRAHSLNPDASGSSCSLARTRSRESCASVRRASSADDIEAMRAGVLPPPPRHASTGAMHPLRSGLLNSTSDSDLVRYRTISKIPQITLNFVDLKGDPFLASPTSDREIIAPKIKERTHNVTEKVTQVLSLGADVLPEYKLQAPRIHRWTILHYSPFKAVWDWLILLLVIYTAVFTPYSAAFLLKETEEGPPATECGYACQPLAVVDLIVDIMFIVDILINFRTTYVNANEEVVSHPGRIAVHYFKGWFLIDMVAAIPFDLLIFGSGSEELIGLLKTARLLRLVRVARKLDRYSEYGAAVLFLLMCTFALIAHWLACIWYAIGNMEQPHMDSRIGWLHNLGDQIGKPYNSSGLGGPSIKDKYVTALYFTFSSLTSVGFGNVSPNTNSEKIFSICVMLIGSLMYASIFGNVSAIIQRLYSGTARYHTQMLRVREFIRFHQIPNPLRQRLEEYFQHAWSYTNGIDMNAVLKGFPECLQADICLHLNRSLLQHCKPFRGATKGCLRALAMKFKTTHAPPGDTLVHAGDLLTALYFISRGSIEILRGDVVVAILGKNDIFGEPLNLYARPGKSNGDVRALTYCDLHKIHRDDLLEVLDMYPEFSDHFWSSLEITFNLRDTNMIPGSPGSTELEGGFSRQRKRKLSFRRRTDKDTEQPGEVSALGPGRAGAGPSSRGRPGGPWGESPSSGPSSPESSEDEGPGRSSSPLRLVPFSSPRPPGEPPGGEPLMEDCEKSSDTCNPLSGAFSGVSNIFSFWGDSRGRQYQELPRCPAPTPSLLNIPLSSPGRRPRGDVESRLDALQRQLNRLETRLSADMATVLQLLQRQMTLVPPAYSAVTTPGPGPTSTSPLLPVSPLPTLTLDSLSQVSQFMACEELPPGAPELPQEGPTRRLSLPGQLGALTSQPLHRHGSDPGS

[3] = tested on: retinal vascular leakage in diabetic rats; test: STZ-induced diabetic rat model, retinal vascular permeability; type: in vivo, Brown Norway rat; conditions: daily i.p. for 28 days
PPARα = target: T2, PPARα (Homo sapiens, UniProt Q07869); test: Cellular thermal shift assay; type: cell-based; conditions: MIO-M1 cells, 45.5 °C
T2 sequence (Q07869 1-468): T1 sequence (Q07869 1-468)

[4] = target: T3, Ligand Binding Domain of PPARα (Homo sapiens, UniProt Q07869); test: Isothermal titration calorimetry; conditions: 4b vs 4a; 4u vs 4b
T3 sequence (Q07869 239-466 limits assumed): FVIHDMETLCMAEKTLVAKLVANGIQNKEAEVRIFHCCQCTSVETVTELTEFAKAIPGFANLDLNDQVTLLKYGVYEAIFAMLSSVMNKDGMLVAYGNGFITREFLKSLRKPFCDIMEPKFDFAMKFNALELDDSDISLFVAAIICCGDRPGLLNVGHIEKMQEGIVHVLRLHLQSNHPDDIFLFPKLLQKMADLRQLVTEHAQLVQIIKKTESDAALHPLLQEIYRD

[5] = Stability in human liver microsomes; type: in vitro ADME; conditions: compared with 4a (A91)
[6] = Stability in rat liver microsomes; type: in vitro ADME; conditions: compared with 4a (A91)
[7] = tested on: cytochrome P450 isoforms (1A, 2C9, 2C19, 2D6, and 3A); test: Time-dependent CYP inhibition in pooled human liver microsomes; type: in vitro ADME; conditions: 10 μM, pre-incubation ± NADPH
human PPARα (hPPARα) [8] = target: T1, human PPARα (hPPARα); test: cell-based; conditions: EC50 hPPARα (cellular potency), luciferase reporter

## O=C(O)c1cccc(NCc2ccc(OCc3ccc(F)cc3F)cc2)c1 [Compound 4j, 3-((4-((2,4-difluorobenzyl)oxy)benzyl)amino)benzoic acid]
Human PPARα (hPPARα) [1]; SI = EC50 (PPARγ or PPARδ) / EC50 (PPARα)
  SI: >175
Human PPARα (hPPARα) [1]; over hPPARγ and hPPARδ, no agonism up to 100 μM
  selectivity for hPPARα over other PPAR isoforms: > 175 fold

## COc1ccc(COc2ccc(CNc3cccc(C(=O)O)c3)cc2)cc1 [Compound 4a, 3-((4-((4-methoxybenzyl)oxy)benzyl)amino)benzoic acid]
[2]
  hERG channel liability: low potency
[3]
  hepatomegaly (liver phenotype): lack signs of hepatomegaly
[3]; Evans blue tracer
  retinal vascular leakage: reduces retinal vascular leakage in diabetic rats to the range of the non-diabetic cohort

## O=C(O)c1cc(Cl)cc(NCc2ccc(OCc3ccc(F)cc3)cc2)c1 [Compound 4r, 3-chloro-5-((4-((4-fluorobenzyl)oxy)benzyl)amino)benzoic acid]
Human PPARα (hPPARα) [1]; ratio of relative light unit (RLU) signal at 5 μM and 50 μM compound
  Ratio (5/50): 0.11

## Cc1cc(CNc2cccc(C(=O)O)c2)ccc1OCc1ccc(F)cc1 [Compound 4u, 3-((4-((4-fluorobenzyl)oxy)-3-methylbenzyl)amino)benzoic acid]
PPARα
  rescue of PPARα stability: 3 fold
[4]
  improvement in binding affinity: ~ 38 fold
[5]
  stability in liver microsomes: significantly improved stability
[6]
  stability in liver microsomes: significantly improved stability
[7]
  time-dependent (irreversible) inhibition of major CYP450 isoforms: no signs of irreversible inhibition
[2]
  hERG channel liability: not considered a hERG liability
Human PPARα (hPPARα) [8]
  pEC50: ~7.40
